# According to patent US9504685B2, “Method for treating a pulmonary hypertension condition” (Gilead Sciences, Inc., priority 2006, dated 2016):
# Where two headings read alike, the source gives them in different places.
# Tests used:
# ETA receptor = molecular target: T1, ETA receptor (Homo sapiens, UniProt P25101); conditions: read-out: affinity for the ETA receptor; cited from earlier work
# T1 sequence (P25101 21-427): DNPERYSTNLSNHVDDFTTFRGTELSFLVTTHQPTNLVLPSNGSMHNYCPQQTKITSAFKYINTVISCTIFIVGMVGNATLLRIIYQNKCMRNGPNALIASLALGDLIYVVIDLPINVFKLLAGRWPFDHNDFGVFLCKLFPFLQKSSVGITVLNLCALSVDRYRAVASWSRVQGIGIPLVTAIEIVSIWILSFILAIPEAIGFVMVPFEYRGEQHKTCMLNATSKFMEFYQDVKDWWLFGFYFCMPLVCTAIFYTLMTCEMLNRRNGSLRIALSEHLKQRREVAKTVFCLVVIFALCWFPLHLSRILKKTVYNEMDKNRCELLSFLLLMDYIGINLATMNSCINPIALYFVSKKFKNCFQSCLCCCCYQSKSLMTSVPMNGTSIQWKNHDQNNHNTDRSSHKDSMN
# subjects with PAH [1] = conditions: for Subjects who died: 12 weeks
# Protocol: All adverse effects (AEs) reported during the course of the study were reported and summaries of all AEs were prepared showing frequencies and percentages of: • (a) subjects with at least 1 AE; • (b) subjects with possibly or probably drug-related AEs; • (c) subjects with at least 1 serious AE (SAE); • (d) subjects with an AE leading to study discontinuation; and • (e) subjects who died. […]
# The safety population was defined as all randomized subjects who received at least 1 dose of study drug. Subjects were considered as belonging to a treatment group according to the highest actual treatment dose received. Any subject who received 10 mg ambrisentan on any day was included in the 10 mg group for safety analyses in the entire study. Any subject who received 5 mg ambrisentan on any day and never received 10 mg ambrisentan on any day was included in the 5 mg group for safety analyses in the entire study. Otherwise, any subject who received only placebo was included in the placebo group for safety analyses in the study.
# subjects with PAH [2] = assay: Example 1 (ARIES-2) Phase III trial, disposition, safety and tolerability; type: in vivo; conditions: for Subjects who died: 12 weeks
# Protocol: Change from Week 0 to Week 12 was determined.
# [3] = male subjects, 10 mg once daily
# [4] = male subjects, 2.5 mg once daily
compound,measurement,setting,value
COC(c1ccccc1)(c1ccccc1)[C@H](Oc1nc(C)cc(C)n1)C(=O)O [ambrisentan],Ki,ETA receptor,~0.012 nM
same,subjects who died during the study or within 30 days of the last dose,subjects with PAH [1]; 5 mg once daily,1.5%
same,Subjects who died,subjects with PAH [1]; 5 mg once daily,1 (1.5) subjects (% of safety populati
same,subjects who died during the study or within 30 days of the last dose,subjects with PAH [1]; 10 mg once daily,1.5%
same,Subjects who died,subjects with PAH [1]; 10 mg once daily,1 (1.5) subjects (% of safety populati
same,Subjects who died,subjects with PAH [1]; combined 5 mg and 10 mg groups,2 (1.5) subjects (% of safety populati
same,"effect on PT, INR or weekly warfarin-type anticoagulant dose",subjects with PAH [1]; in vivo,no effect
same,male fertility hormones and serial semen samples,subjects with PAH [1]; in vivo,did not suggest that ambrisentan was associated with an adverse effect on male reproductive potential
same,mean changes from baseline at Week 12 for serum ALT and AST,subjects with PAH [1]; in vivo,no notable mean changes
same,subjects who developed elevated serum aminotransferase concentrations >3×ULN,subjects with PAH [1]; in vivo,None
same,change from baseline in testosterone concentration at Week 12,"subjects with PAH [1]; male subjects, 5 mg once daily",-0.099 ± 3.48 nmol/L
same,change from baseline in testosterone concentration at Week 12,subjects with PAH [1]; [3],-0.099 ± 3.48 nmol/L
same,change over baseline in FSH concentration at Week 12,subjects with PAH [1]; [3],+1.83 IU/liter
same,subjects who died during the study or within 30 days of the last dose,subjects with PAH [2]; 2.5 mg once daily,3.1%
same,Subjects who died,subjects with PAH [2]; 2.5 mg once daily,2 (3.1) subjects (% of safety populati
same,subjects who died during the 12-week study,subjects with PAH [2]; 5 mg once daily,No subjects
same,Subjects who died,subjects with PAH [2]; 5 mg once daily,0 (0.0) subjects (% of safety populati
same,Subjects who died,subjects with PAH [2]; combined 2.5 mg and 5 mg groups,2 (1.6) subjects (% of safety populati
same,male fertility hormones and serial semen samples,subjects with PAH [2]; in vivo,did not suggest that ambrisentan was associated with an adverse effect on male reproductive potential
same,mean changes from baseline at Week 12 for serum ALT and AST,subjects with PAH [2]; in vivo,no notable mean changes
same,mean total bilirubin and mean alkaline phosphatase,subjects with PAH [2]; in vivo,notable decrease
same,subjects who developed elevated serum aminotransferase concentrations >3.0×ULN,subjects with PAH [2]; in vivo,None
same,change in testosterone concentration over the 12-week study,subjects with PAH [2]; [4],-0.09 ± 4.595 nmol/L
same,change over baseline in FSH concentration at Week 12,subjects with PAH [2]; [4],+0.58 IU/liter
same,change in testosterone concentration over the 12-week study,"subjects with PAH [2]; male subjects, 5 mg once daily",-2.61 ± 6.962 nmol/L
